Reference: EP4043444A1, “SUBSTITUTED ISOXAZOLINE DERIVATIVES” (priority 2021, dated 2022)
Where two headings read alike, the source gives them in different places.

Tests used:
Assay type in all cases: in vivo
[1] = system: Tobacco Budworm (Heliothis virescens); assay: Tobacco Budworm control, 96-well microtiter plates with insect diet and eggs; details: Heliothis virescens, 120 h, read-out: mortality (Egg and larval mortality)
Procedure: For evaluating control of Tobacco Budworm, the test unit consisted of 96-well-microtiter plates containing an insect diet and 15-25 H. virescens eggs. The compounds were formulated using a solution containing 75% v/v water and 25% v/v DMSO. Different concentrations of formulated compounds were sprayed onto the insect diet at 10µl, using a custom-built micro atomizer, at two replications. After application, microtiter plates were incubated at about 28 + 1°C and about 80 + 5 % relative humidity for 5 days. Egg and larval mortality was then visually assessed.

[2] = system: Yellow Fever Mosquito (Aedes aegypti); assay: whole plant or invertebrate; details: 48 h, 2 days, in comparison with untreated controls, read-out: mortality (Larval mortality)
Procedure: For evaluating control of Yellow Fever Mosquito the test unit consisted of 96-well-microtiter plates containing 200µl of tap water per well and 5-15 freshly hatched A. aegypti larvae. The active compounds were formulated using a solution containing 75% (v/v) water and 25% (v/v) DMSO. Different concentrations of formulated compounds or mixtures were sprayed onto the insect diet at 2.5µl, using a custom-built micro atomizer, at two replications.
After application, microtiter plates were incubated at 28 + 1°C, 80 + 5 % RH for 2 days. Larval mortality was then visually assessed.

[3] = system: Green Peach Aphid (Myzus persicae) (mixed life stages); assay: Green Peach Aphid control through systemic means, artificial diet under artificial membrane; details: Myzus persicae, 72 h, read-out: mortality (Aphid mortality)
Description: For evaluating control of Green Peach Aphid through systemic means the test unit consisted of 96-well-microtiter plates containing liquid artificial diet under an artificial membrane. The compounds were formulated using a solution containing 75% v/v water and 25% v/v DMSO. Different concentrations of formulated compounds were pipetted into the aphid diet, using a custom-built pipette, at two replications. After application, 5 - 8 adult aphids were placed on the artificial membrane inside the microtiter plate wells. The aphids were then allowed to suck on the treated aphid diet and incubated at about 23 + 1°C and about 50 + 5 % relative humidity for 3 days. Aphid mortality and fecundity was then visually assessed.

[4] = system: Boll weevil (Anthonomus grandis); assay: Boll weevil control, 96-well microtiter plates with insect diet and eggs; details: Anthonomus grandis, 120 h, read-out: mortality (Egg and larval mortality)
Procedure: For evaluating control of boll weevil, the test unit consisted of 96-well-microtiter plates containing an insect diet and 5-10 A. grandis eggs.
The compounds were formulated using a solution containing 75% v/v water and 25% v/v DMSO. Different concentrations of formulated compounds were sprayed onto the insect diet at 5µl, using a custom-built micro atomizer, at two replications.
After application, microtiter plates were incubated at about 25 + 1°C and about 75 + 5 % relative humidity for 5 days. Egg and larval mortality were then visually assessed.

[5] = system: Greenhouse Whitefly (Trialeurodes vaporarirorum); assay: Greenhouse Whitefly control, 96-well microtiter plates with eggplant leaf disk and eggs; details: foliar, 144 h, read-out: mortality (Mortality of hatched crawlers)
Procedure: For evaluating control of Greenhouse Whitefly, the test unit consisted of 96-well-microtiter plates containing a leaf disk of eggplant leaf disk with Whitefly eggs. The compounds or mixtures were formulated using a solution containing 75% water and 25% DMSO. Different concentrations of formulated were sprayed onto the […] at 2.5µl, using a custom-built micro atomizer, at two replications. After application, microtiter plates were incubated at 23 + 1°C, 65 + 5% RH for 6 days. Mortality of hatched crawlers was then visually assessed.

[6] = 2500ppm, sprayed onto insect diet, 5 days, in comparison with untreated controls

Measured: mortality at 2500 ppm

O=C(Nc1ccc(F)cc1F)c1cc(NC2=NOC(c3ccc(F)c(C(F)(F)F)c3)(C(F)(F)F)C2)ccc1Cl (stereo not shown) [I-16]
≥ 75%: [1]; [6] | [2] | [3] | [4]

O=C(Nc1ccc(F)cc1F)c1cc(NC2=NOC(c3cccc(C(F)(F)F)c3)(C(F)(F)F)C2)ccc1Cl (stereo not shown) [I-20, 2-chloro-N-(2,4-difluorophenyl)-5-[[5-(trifluoromethyl)-5-[3-(trifluoromethyl)phenyl]-4H-isoxazol-3-yl]amino]benzamide]
≥ 75%: [1]; [6] | [3] | [4] | [5]

O=C(NC1C[S+]([O-])C1)c1cc(NC2=NOC(c3cc(Cl)c(F)c(Cl)c3)(C(F)(F)F)C2)ccc1Cl (stereo not shown) [I-96, 2-chloro-5-[[5-(3,5-dichloro-4-fluoro-phenyl)-5-(trifluoromethyl)-4H-isoxazol-3-yl]amino]-N-(1-oxothietan-3-yl)benzamide]
≥ 75%: [1] | [2] | [3] | [4]

O=C(NC1CN(S(=O)(=O)C(F)F)C1)c1cc(NC2=NOC(c3cc(Cl)c(F)c(Cl)c3)(C(F)(F)F)C2)ccc1Cl (stereo not shown) [I-98, 2-chloro-5-[[5-(3,5-dichloro-4-fluoro-phenyl)-5-(trifluoromethyl)-4H-isoxazol-3-yl]amino]-N-[1-(difluoromethylsulfonyl)azetidin-3-yl]benzamide]
≥ 75%: [1] | [2] | [3] | [4]

O=C(N[C@@H]1CON(CC(F)(F)F)C1=O)c1cc(NC2=NOC(c3cc(Cl)c(F)c(Cl)c3)(C(F)(F)F)C2)ccc1Cl (stereo partly drawn) [I-119, 2-chloro-5-[[5-(3,5-dichloro-4-fluoro-phenyl)-5-(trifluoromethyl)-4H-isoxazol-3-yl]amino]-N-[(4R)-3-oxo-2-(2,2,2-trifluoroethyl)isoxazolidin-4-yl]benzamide]
≥ 75%: [1] | [2] | [3] | [4]

N#CC1(NC(=O)c2cc(NC3=NOC(c4cc(Cl)cc(Cl)c4)(C(F)(F)F)C3)ccc2OC(F)(F)F)CC1 (stereo not shown) [I-150]
≥ 75%: [1]; [6] | [2] | [3] | [4]

O=C(Nc1ccc(F)cc1F)c1cc(NC2=NOC(c3cc(Cl)cc(Cl)c3)(C(F)(F)F)C2)ccc1F (stereo not shown) [I-154]
≥ 75%: [1]; [6] | [2] | [3] | [4]

O=C(Nc1ccc(F)cc1F)c1cc(NC2=NOC(c3cc(Cl)cc(Cl)c3)(C(F)(F)F)C2)ccc1OC(F)F (stereo not shown) [I-157]
≥ 75%: [1]; [6] | [2] | [3] | [4]

O=C(Nc1ccc(F)cc1F)c1cc(NC2=NOC(c3cc(Cl)cc(Cl)c3)(C(F)(F)F)C2)ccc1C(F)(F)F (stereo not shown) [I-158]
≥ 75%: [1]; [6] | [2] | [3] | [4]

CCN1OC[C@@H](NC(=O)c2cc(NC3=NOC(c4cc(Cl)cc(Cl)c4)(C(F)(F)F)C3)ccc2F)C1=O (stereo partly shown) [I-162]
≥ 75%: [1]; [6] | [2] | [3] | [4]

CCN1OC[C@@H](NC(=O)c2cc(NC3=NOC(c4cc(Cl)cc(Cl)c4)(C(F)(F)F)C3)ccc2C)C1=O (stereo partly shown) [I-163]
≥ 75%: [1]; [6] | [2] | [3] | [4]

CCN1OC[C@@H](NC(=O)c2cc(NC3=NOC(c4cc(Cl)cc(Cl)c4)(C(F)(F)F)C3)ccc2C(F)(F)F)C1=O (stereo partly shown) [I-166]
≥ 75%: [1]; [6] | [2] | [3] | [4]

Cc1ccc(NC2=NOC(c3cc(Cl)cc(Cl)c3)(C(F)(F)F)C2)cc1C(=O)NC1CC1 (stereo not shown) [I-169]
≥ 75%: [1]; [6] | [2] | [3] | [4]

O=C(NC1CC1)c1cc(NC2=NOC(c3cc(Cl)cc(Cl)c3)(C(F)(F)F)C2)ccc1OC(F)(F)F (stereo not shown) [I-172]
≥ 75%: [1]; [6] | [2] | [3] | [4]

O=C(NCC(F)(F)F)c1cc(NC2=NOC(c3cc(Cl)cc(Cl)c3)(C(F)(F)F)C2)ccc1OC(F)F (stereo not shown) [I-178]
≥ 75%: [1]; [6] | [2] | [3] | [4]

O=C(NCC(F)(F)F)c1cc(NC2=NOC(c3cc(Cl)cc(Cl)c3)(C(F)(F)F)C2)ccc1OC(F)(F)F (stereo not shown) [I-179]
≥ 75%: [1]; [6] | [2] | [3] | [4]
